Calls of active or inactive are those of the source. No cut-off for these calls is given here.

Drawing on ChEMBL document CHEMBL3232732, “A,D-seco-limonoids from the stems of Clausena emarginata” (J Nat Prod, 2014), this text covers inhibition and IC50 for 16 compounds.

Holding throughout (format): functional, cell-based
One experiment has as its system BV-2. The experiment is described as follows: Inhibition of LPS-induced NO production in mouse BV2 cells compound pre-treated for 1 hr before LPS addition measured after 24 hrs by Griess assay.
For another experiment, the system named is HCT-116. In words: Cytotoxicity against human HCT116 cells after 96 hrs by MTT assay. The conditions noted are these: HCT-116, 96 h.
The next experiment has as its system HepG2. The experiment is described as follows: Cytotoxicity against human HepG2 cells after 96 hrs by MTT assay. Particulars: HepG2, 96 h.
Experiment [1] in a line: Cytotoxicity against human BGC823 cells after 96 hrs by MTT assay. Particulars: BGC-823, 96 h.
The next experiment relates to NCI-H1650. The experiment is described as follows: Cytotoxicity against human NCI-H1650 cells after 96 hrs by MTT assay. Particulars: NCI-H1650, 96 h.
The next experiment has as its system SK-OV-3. The experiment is described as follows: Cytotoxicity against human SKOV3 cells after 96 hrs by MTT assay. The conditions noted are these: SK-OV-3, 96 h.

Regarding `CC(=O)O[C@@H](CC(=O)O)[C@]1(C)[C@H]2[C@@H](O)C[C@@]3(C)[C@H](C4=CC(O)OC4=O)OC(=O)[C@H]4O[C@]43[C@]2(C)C(=O)C[C@H]1C(C)(C)O` (relative stereo), in the experiment with BV-2, the inhibition result was “inactive”. Moreover, the IC50 (with HCT-116; in the experiment with HepG2; in experiment [1]; with NCI-H1650; with SK-OV-3) was > 10 µM in each case.

Turning to `CCOC(=O)C[C@H](OC(C)=O)[C@]1(C)[C@H]2[C@@H](O)C[C@@]3(C)[C@H](c4ccoc4)OC(=O)[C@H]4O[C@]43[C@]2(C)C(=O)C[C@H]1C(C)(C)O`, the IC50 in the experiment with BV-2 is 5.1 µM; in the experiment with HCT-116, > 10 µM; with HepG2 it was > 10 µM; in experiment [1], > 10 µM; in the experiment on NCI-H1650, > 10 µM; in the experiment with SK-OV-3, > 10 µM.

Regarding `COC(=O)C[C@H](O)[C@]1(C)[C@H]2[C@@H](O)C[C@@]3(C)[C@H](c4ccoc4)OC(=O)[C@H]4O[C@]43[C@]2(C)C(=O)C[C@H]1C(C)(C)O`, the IC50 in the experiment with BV-2 was 7 µM; in the experiment with HCT-116 it was > 10 µM; with HepG2 it was > 10 µM; in experiment [1], > 10 µM; in the experiment with NCI-H1650, > 10 µM; with SK-OV-3, > 10 µM.

With `COC(=O)C[C@H]1OC(C)(C)[C@@H]2CC(=O)[C@]3(C)[C@H]([C@@H](O)C[C@@]4(C)[C@H](C5=CC(O)OC5=O)OC(=O)[C@H]5O[C@]543)[C@@]12C` (relative stereo), in the experiment on BV-2, the inhibition entry was “inactive”. Further, the IC50 (with HCT-116; in the experiment on HepG2; in experiment [1]; in the experiment with NCI-H1650; in the experiment on SK-OV-3) was > 10 µM each time.

On to `CC1(C)OC(=O)C=C[C@]2(C)[C@H]3[C@@H](O)C[C@@]4(C)[C@@H](C5=CC(=O)OC5O)OC(=O)[C@H]5O[C@]54[C@]3(C)C(=O)C[C@@H]12` (stereo partly specified), for which the inhibition result with BV-2 is “inactive”. In addition, the IC50 (in the experiment with HCT-116; in the experiment on HepG2; in experiment [1]; with NCI-H1650; with SK-OV-3) was > 10 µM in each case.

`COC(=O)C[C@H]1OC(C)(C)[C@@H]2CC(=O)[C@]3(C)[C@H]([C@@H](O)C[C@@]4(C)[C@H](C5=CC(=O)OC5O)OC(=O)[C@H]5O[C@]543)[C@@]12C` (stereo partly specified): the inhibition result with BV-2 was “inactive”. In addition, the IC50 (in the experiment on HCT-116; in the experiment on HepG2; in experiment [1]; in the experiment with NCI-H1650; in the experiment on SK-OV-3) was > 10 µM throughout.

Turning to `COC(=O)C[C@H](OC(C)=O)[C@]1(C)[C@H]2[C@@H](O)C[C@@]3(C)[C@H](c4ccoc4)OC(=O)[C@H]4O[C@]43[C@]2(C)C(=O)C[C@H]1C(C)(C)O`, the IC50 in the experiment on BV-2 was 8.8 µM; with HCT-116, > 10 µM; in the experiment with HepG2, > 10 µM; in experiment [1] it was > 10 µM; in the experiment on NCI-H1650, > 10 µM; in the experiment on SK-OV-3, > 10 µM.

Regarding `CC(=O)O[C@H]1CC(=O)OC(C)(C)[C@@H]2CC(=O)[C@]3(C)[C@H]([C@@H](O)C[C@@]4(C)[C@H](C5=CC(O)OC5=O)OC(=O)[C@H]5O[C@]543)[C@@]12C` (stereo partly specified), the inhibition entry in the experiment on BV-2 was “inactive”. The half-inhibitory concentration (IC50) (in the experiment with HCT-116; with HepG2; in experiment [1]; with NCI-H1650; in the experiment on SK-OV-3) was > 10 µM in each case.

Take `COC(=O)C[C@H]1OC(C)(C)[C@@H]2CC(=O)[C@]3(C)[C@H]([C@@H](O)C[C@@]4(C)[C@H](c5ccoc5)OC(=O)[C@H]5O[C@]543)[C@@]12C`: the IC50 in the experiment on BV-2 is 10 µM; in the experiment on HCT-116, > 10 µM; with HepG2, > 10 µM; in experiment [1], > 10 µM; in the experiment with NCI-H1650 it was > 10 µM; in the experiment on SK-OV-3 it was > 10 µM.

`CC(=O)O[C@H]1CC(=O)OC(C)(C)[C@@H]2CC(=O)[C@]3(C)[C@H]([C@@H](O)C[C@@]4(C)[C@H](c5ccoc5)OC(=O)[C@H]5O[C@]543)[C@@]12C`: in the experiment on BV-2, the inhibition entry is “inactive”. The IC50 (with HCT-116; in the experiment with HepG2; in experiment [1]; in the experiment on NCI-H1650; in the experiment on SK-OV-3) was > 10 µM in each case.

As to `CC1(C)OC(=O)C=C[C@]2(C)[C@H]3[C@@H](O)C[C@@]4(C)[C@H](C5=CC(O)OC5=O)OC(=O)[C@H]5O[C@]54[C@]3(C)C(=O)C[C@@H]12` (stereo partly specified), the inhibition entry in the experiment on BV-2 was “inactive”. Besides, the IC50 (in the experiment with HCT-116; with HepG2; in experiment [1]; in the experiment on NCI-H1650; in the experiment with SK-OV-3) was > 10 µM each time.

Take `COC(=O)C[C@@H]1OC(C)(C)[C@@H]2CC(=O)[C@]3(C)[C@H]([C@@H](O)C[C@@]4(C)[C@H](c5ccoc5)OC(=O)[C@H]5O[C@]543)[C@@]12C`: the half-inhibitory concentration (IC50) was 6.7 µM with BV-2; > 10 µM in the experiment with HCT-116; > 10 µM in the experiment with HepG2; > 10 µM in experiment [1]; > 10 µM with NCI-H1650; > 10 µM in the experiment on SK-OV-3.

With `CC(C)(O)[C@@H]1CC(=O)[C@]2(C)[C@@H]3[C@H](C[C@@]4(C)[C@H](c5ccoc5)OC(=O)[C@H]5O[C@]542)OC(=O)C=C[C@]31C`, the inhibition entry with BV-2 was “inactive”. Moreover, the IC50 (in the experiment with HCT-116; in the experiment with HepG2; in experiment [1]; with NCI-H1650; with SK-OV-3) was > 10 µM each time.

On to `CC(=O)O[C@H]1CC(=O)OC(C)(C)[C@@H]2CC(=O)[C@]3(C)[C@H]([C@@H](O)C[C@@]4(C)[C@H](C5=CC(=O)OC5O)OC(=O)[C@H]5O[C@]543)[C@@]12C` (relative stereo), for which the inhibition entry in the experiment on BV-2 is “inactive”. In addition, the IC50 (in the experiment on HCT-116; with HepG2; in experiment [1]; with NCI-H1650; in the experiment with SK-OV-3) was > 10 µM throughout.

On to `CC1(C)OC(=O)C=C[C@]2(C)[C@H]3[C@@H](O)C[C@@]4(C)[C@H](c5ccoc5)OC(=O)[C@H]5O[C@]54[C@]3(C)C(=O)C[C@@H]12`, for which the IC50 with BV-2 was 5.3 µM; in the experiment on HCT-116, > 10 µM; in the experiment on HepG2 it was > 10 µM; in experiment [1], > 10 µM; in the experiment on NCI-H1650, > 10 µM; with SK-OV-3, > 10 µM.

As for `COc1cc(/C=C/C(=O)CC(=O)/C=C/c2ccc(O)c(OC)c2)ccc1O` [CURCUMIN], the IC50 in the experiment with BV-2 stood at 0.5 µM.
